We go through 7 compounds from patent US6720322B2, “Butyne diol derivatives” (Actelion Pharamceuticals Ltd., priority 1999, dated 2004).

The target of data set [1] is T1, human recombinant ETA receptors (Homo sapiens, UniProt P25101).
T1 construct: expressed in transfected cells; host or cells: CHO cells (microsomal membranes)
T1 sequence (P25101 21-427): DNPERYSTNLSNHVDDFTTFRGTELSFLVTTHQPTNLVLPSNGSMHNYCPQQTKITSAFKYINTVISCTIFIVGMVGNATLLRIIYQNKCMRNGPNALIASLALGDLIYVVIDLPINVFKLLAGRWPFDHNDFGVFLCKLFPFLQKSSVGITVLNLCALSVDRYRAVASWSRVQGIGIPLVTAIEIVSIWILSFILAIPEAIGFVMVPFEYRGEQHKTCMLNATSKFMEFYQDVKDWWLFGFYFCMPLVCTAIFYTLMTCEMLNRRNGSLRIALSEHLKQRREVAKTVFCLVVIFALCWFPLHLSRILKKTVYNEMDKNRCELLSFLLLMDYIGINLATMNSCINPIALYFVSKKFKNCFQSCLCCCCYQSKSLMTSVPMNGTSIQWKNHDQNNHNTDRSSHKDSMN
The experiment in a line: Inhibition of [125I]ET-1 binding to membranes of CHO cells expressing human recombinant ETA receptors. Note: 2.5% DMSO. As to the method:
(§1) 1) Inhibition of Endothelin Binding to Membranes from CHO Cells Carrying Human ET Receptors:
(§2) For competition binding studies, membranes of CHO cells expressing human recombinant ETA or ETB receptors were used.
(§3) The assay was performed in 200 uL 50 mM Tris/HCl buffer, pH 7.4, including 25 mM MnCl2, 1 mM EDTA and 0.5% (w/v) BSA in polypropylene microtiter plates. […] After two h, the membranes were filtered on filterplates containing GF/C filters (Unifilterplates from Canberra Packard S.A. Zürich, Switzerland). To each well, 50 uL of scintillation cocktail was added (MicroScint 20, Canberra Packard S.A. Zürich, Switzerland) and the filter plates counted in a microplate counter (TopCount, Canberra Packard S.A. Zürich, Switzerland).
(§4) All the test compounds were dissolved, diluted and added in DMSO.

Data set [2] has as its target T2, human recombinant ETB receptors (Homo sapiens, UniProt P24530).
T2 construct: expressed in transfected cells; host or cells: CHO cells (microsomal membranes)
T2 sequence (P24530 27-442): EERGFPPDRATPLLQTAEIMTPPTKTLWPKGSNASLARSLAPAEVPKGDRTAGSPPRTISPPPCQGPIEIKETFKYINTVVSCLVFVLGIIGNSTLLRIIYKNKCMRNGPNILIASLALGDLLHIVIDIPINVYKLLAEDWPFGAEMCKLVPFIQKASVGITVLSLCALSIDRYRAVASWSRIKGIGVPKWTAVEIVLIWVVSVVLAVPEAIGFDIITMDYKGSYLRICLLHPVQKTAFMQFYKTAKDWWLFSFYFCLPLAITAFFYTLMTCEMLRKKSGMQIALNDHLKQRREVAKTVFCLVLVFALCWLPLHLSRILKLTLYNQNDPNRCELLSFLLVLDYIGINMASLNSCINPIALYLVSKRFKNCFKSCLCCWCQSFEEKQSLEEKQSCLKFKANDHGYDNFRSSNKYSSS
In words: Inhibition of [125I]ET-1 binding to membranes of CHO cells expressing human recombinant ETB receptors. Note: 2.5% DMSO. The method, then: as §1, §2, §3, §4

Data set [3] addresses T3, rat tracheal rings (ETB receptors) (Rattus norvegicus, UniProt P21451).
T3 construct: The thoracic aorta or trachea were excised, dissected and cut in 3-5 mm rings; from tissue; host or cells: tracheal rings of adult Wistar rats, epithelium removed
T3 sequence (P21451 27-442): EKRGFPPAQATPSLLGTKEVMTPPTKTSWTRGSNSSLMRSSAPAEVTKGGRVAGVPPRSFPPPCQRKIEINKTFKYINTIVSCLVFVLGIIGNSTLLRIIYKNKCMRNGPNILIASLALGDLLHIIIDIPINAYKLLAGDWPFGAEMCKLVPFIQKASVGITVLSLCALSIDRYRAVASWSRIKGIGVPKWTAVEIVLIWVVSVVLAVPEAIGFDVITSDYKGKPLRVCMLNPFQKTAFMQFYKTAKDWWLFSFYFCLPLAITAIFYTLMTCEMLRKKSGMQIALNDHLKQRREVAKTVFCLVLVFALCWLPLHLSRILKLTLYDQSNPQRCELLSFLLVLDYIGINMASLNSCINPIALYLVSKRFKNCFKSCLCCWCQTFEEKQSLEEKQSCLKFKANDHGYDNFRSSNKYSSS
The experiment in a line: Inhibition of sarafotoxin S6c-induced contraction of isolated rat tracheal rings. Type of data set: cell-based. As to conditions: contraction induced by sarafotoxin S6c, 10 min incubation with the test compound; read-out: pA2 trachea (converted).
Experimental: 2) Inhibition of Endothelin-induced Contractions on Isolated Rat Aortic Rings (ETA Receptors) and Rat Tracheal Rings (ETB Receptors)
The functional inhibitory potency of the endothelin antagonists was assessed by their inhibition of the contraction induced by endothelin-1 on rat aortic rings (ETA receptors) and of the contraction induced by sarafotoxin S6c on rat tracheal (ETB receptors). Adult Wistar rats were anesthetized and exsanguinated. The thoracic aorta or trachea were excised, dissected and cut in 3-5 mm rings. The endothelium/epithelium was removed by gentle rubbing of the intimal surface. […] The rings were connected to force transducers and isometric tension was recorded (EMKA Technologies SA, Paris, France). The rings were stretched to a resting tension of 3 g (aorta) or 2 g (trachea). […] The functional inhibitory potency of the test compound was assessed by calculating the concentration ratio, i.e. the shift to the right of the EC50 induced by different concentrations of test compound. EC50 is the concentration of endothelin needed to get a half-maximal contraction, pA2 is the negative logarithm of the antagonist concentration which induces a two-fold shift in the EC50 value.

Data set [4] has as its target T4, rat aortic rings (ETA receptors) (Rattus norvegicus, UniProt P26684).
T4 sequence (P26684 21-426): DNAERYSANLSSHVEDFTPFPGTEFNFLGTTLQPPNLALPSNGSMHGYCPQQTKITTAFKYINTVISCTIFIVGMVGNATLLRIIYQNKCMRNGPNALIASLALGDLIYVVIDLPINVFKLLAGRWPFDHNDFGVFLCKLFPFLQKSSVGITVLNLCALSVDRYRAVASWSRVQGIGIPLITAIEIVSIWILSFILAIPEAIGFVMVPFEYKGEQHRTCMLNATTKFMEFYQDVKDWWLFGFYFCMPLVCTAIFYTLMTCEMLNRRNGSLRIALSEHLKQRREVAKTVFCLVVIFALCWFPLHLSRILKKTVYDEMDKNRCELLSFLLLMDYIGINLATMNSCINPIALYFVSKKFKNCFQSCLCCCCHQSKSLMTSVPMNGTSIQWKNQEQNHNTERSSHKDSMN
In words: Inhibition of endothelin-1-induced contraction of isolated rat aortic rings.

One may read the IC50 as the point on the concentration scale where inhibition reaches its midpoint. As to `COc1ccccc1Oc1c(NS(=O)(=O)c2ccc(C(C)(C)C)cc2)nc(-c2ccncc2)nc1OCC#CCOc1ncccn1` [Example 19, 4-tert.-butyl-N-[6-(4-(2-pyrimidinyloxy)-2-butynyloxy)-5-(o-methoxyphenoxy)-2-(4-pyridyl)-4-pyrimidinyl]-benzene sulfonamide], the IC50 in data set [1] came out at 112 nM; in data set [2], 45 nM. Besides, the values for the Kb in data set [3] and in data set [4] were 24 nM and over 10000 nM, respectively.
Regarding `COCC#CCOc1nc(N2CCOCC2)nc(NS(=O)(=O)c2ccc(C(C)C)cn2)c1Oc1ccccc1OC` [Example 94, 5-isopropyl-N-[6-(4-methoxy-2-butynyloxy)-5-(o-methoxyphenoxy)-2-(N-morpholino)-4-pyrimidinyl]-2-pyridine sulfonamide], the IC50 in data set [1] amounted to 13 nM; in data set [2], 107 nM.
In the same order, the values of `COc1cc(OC)nc(OCC#CCOc2nc(-c3ccncc3)nc(NS(=O)(=O)c3ccc(C(C)(C)C)cc3)c2Oc2ccccc2OC)n1` [Example 21, 4-tert.-butyl-N-[6-(4-(4,6-dimethoxy-2-pyrimidinyloxy)-2-butynyloxy)-5-(o-methoxyphenoxy)-2-(4-pyridyl)-4-pyrimidinyl]-benzene sulfonamide] are 230 nM and 44 nM.
Take `Cc1ccc(-c2c(NS(=O)(=O)c3ccc(C(C)C)cn3)nc(-c3ccncc3)nc2OCC#CCO)cc1` [Example 11d, 5-isopropyl-N-[6-(4-hydroxy-2-butynyloxy)-5-(p-tolyl)-2-(4-pyridyl)-4-pyrimidinyl]-2-pyridine sulfonamide]: the half-maximal inhibitory concentration (IC50) in data set [1] was found to be 49 nM; in data set [2], 97 nM. The figures for the Kb in data set [3] and in data set [4] were 93.3 nM and 89.1 nM, respectively.
Turning to `COc1ccccc1Oc1c(NS(=O)(=O)c2ccc(C(C)C)cn2)nc(C)nc1OCC#CCOC(=O)Nc1ccccc1` [Example 70], the IC50 in data set [1] is 94 nM; in data set [2] it was 375 nM.
For orientation: melting point means the temperature of the solid-liquid transition. `COc1ccccc1Oc1c(NS(=O)(=O)c2ccc(C(C)C)cn2)nc(-c2ccncc2)nc1OCC#CCOC(=O)Nc1cccc(C)c1` [Example 54, m-tolyl-carbamic acid 4-[6-(5-isopropyl-pyridine-2-sulfonylamino)-5-(2-methoxy-phenoxy)-2-pyridin-4-yl-pyrimidin-4-yloxy]-but-2-ynyl ester] came in with a melting point of 163 to 165 °C.
Turning to `COc1cc(OC)nc(OCC#CCOc2nc(-c3ccncc3)nc(NS(=O)(=O)c3ccc(C(C)C)cn3)c2Oc2ccccc2OC)n1` [Example 18, 5-isopropyl-N-[6-(4-(4,6-dimethoxy-2-pyrimidinyloxy)-2-butynyloxy)-5-(o-methoxyphenoxy)-2-(4-pyridyl)-4-pyrimidinyl]-2-pyridine sulfonamide], the IC50 in data set [1] was 79 nM; in data set [2] it was 36 nM.
